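Test compounds were applied to cells in 96-well plates for 48 hours at 5 doses. TGI: concentration producing complete growth inhibition.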
Tests used:
Assay in all cases: DTP human tumour cell line panel, 48 h
PC-3 prostate = system: PC-3 prostate
UO-31 renal = system: UO-31 renal
TK-10 renal = system: TK-10 renal
SW-620 colon = system: SW-620 colon
BT-549 breast = system: BT-549 breast
KM12 colon = system: KM12 colon
MOLT-4 leukemia = system: MOLT-4 leukemia
IGROV1 ovarian = system: IGROV1 ovarian
UACC-62 melanoma = system: UACC-62 melanoma
NCI-H522 lung = system: NCI-H522 lung

CC1=NN(c2cc(Cl)c(S(=O)(=O)O)cc2Cl)C2(C1)C(Cl)C(=O)N2c1nc2ccccc2s1 (stereo not given)
TGI (PC-3 prostate): > 100 µM
TGI (UO-31 renal): 76.5 µM
TGI (TK-10 renal): > 100 µM
TGI (SW-620 colon): > 100 µM
TGI (BT-549 breast): > 100 µM
TGI (KM12 colon): > 100 µM
TGI (MOLT-4 leukemia): > 100 µM
TGI (IGROV1 ovarian): > 100 µM
TGI (UACC-62 melanoma): > 100 µM
TGI (NCI-H522 lung): 71.2 µM

O=C(c1ccccc1)C1C(c2ccccc2[N+](=O)[O-])N1C1CCCCC1 (stereo not given)
TGI (PC-3 prostate): 15.9 µM
TGI (UO-31 renal): 20.3 µM
TGI (TK-10 renal): 7.4 µM
TGI (SW-620 colon): > 26.6 µM
TGI (BT-549 breast): 32.3 µM
TGI (KM12 colon): 25.2 µM
TGI (MOLT-4 leukemia): 7.79 µM
TGI (IGROV1 ovarian): 17.4 µM
TGI (UACC-62 melanoma): 20.6 µM
TGI (NCI-H522 lung): 5.9 µM

CCOC(=O)CCC(C(=O)OCC)n1nnc2cc(Nc3c(C)[n+]([O-])c4cc(Cl)ccc4[n+]3[O-])ccc21 (stereo not given)
TGI (PC-3 prostate): > 100 µM
TGI (UO-31 renal): > 100 µM
TGI (TK-10 renal): > 100 µM
TGI (SW-620 colon): > 100 µM
TGI (BT-549 breast): > 100 µM
TGI (KM12 colon): > 100 µM
TGI (MOLT-4 leukemia): > 100 µM
TGI (IGROV1 ovarian): > 100 µM
TGI (UACC-62 melanoma): > 100 µM
TGI (NCI-H522 lung): > 100 µM

FC(F)(Sc1ncccn1)c1nc2ccccc2o1
TGI (PC-3 prostate): > 100 µM
TGI (UO-31 renal): > 100 µM
TGI (TK-10 renal): > 100 µM
TGI (SW-620 colon): > 100 µM
TGI (BT-549 breast): > 100 µM
TGI (KM12 colon): > 100 µM
TGI (MOLT-4 leukemia): > 100 µM
TGI (IGROV1 ovarian): > 100 µM
TGI (UACC-62 melanoma): > 100 µM
TGI (NCI-H522 lung): > 100 µM

CN=C1C=C(/N=C2/C=C(N/C(=C\C#N)C(C)(C)O)OC2(C)C)OC1(C)C
TGI (PC-3 prostate): > 100 µM
TGI (UO-31 renal): 82.3 µM
TGI (TK-10 renal): > 100 µM
TGI (SW-620 colon): > 100 µM
TGI (BT-549 breast): > 77.8 µM
TGI (KM12 colon): > 100 µM
TGI (MOLT-4 leukemia): > 100 µM
TGI (IGROV1 ovarian): > 72.5 µM
TGI (UACC-62 melanoma): > 85.8 µM
TGI (NCI-H522 lung): 69 µM

CCOC(=O)C(NC(=O)c1ccccc1)(Nc1ccc(S(=O)(=O)Nc2cc(C)on2)cc1)C(F)(F)F (stereo not given)
TGI (PC-3 prostate): > 100 µM
TGI (UO-31 renal): > 100 µM
TGI (TK-10 renal): > 100 µM
TGI (SW-620 colon): > 100 µM
TGI (BT-549 breast): > 100 µM
TGI (KM12 colon): > 100 µM
TGI (MOLT-4 leukemia): > 100 µM
TGI (IGROV1 ovarian): > 100 µM
TGI (UACC-62 melanoma): > 100 µM
TGI (NCI-H522 lung): > 100 µM

CCOC(=O)NC(Nc1ccc(C(=O)O)cc1)(C(F)(F)F)C(F)(F)F
TGI (PC-3 prostate): > 100 µM
TGI (UO-31 renal): > 100 µM
TGI (TK-10 renal): > 100 µM
TGI (SW-620 colon): > 100 µM
TGI (BT-549 breast): > 100 µM
TGI (KM12 colon): > 100 µM
TGI (MOLT-4 leukemia): > 100 µM
TGI (IGROV1 ovarian): > 100 µM
TGI (UACC-62 melanoma): > 100 µM
TGI (NCI-H522 lung): > 100 µM

CCOC(=O)/C=C(/OCC)[C@@H]1C(C(=O)c2ccc(Cl)cc2)[C@@H]1/C(=C\C(=O)OCC)OCC (stereo not given in full)
TGI (PC-3 prostate): > 100 µM
TGI (UO-31 renal): > 91 µM
TGI (TK-10 renal): 43.6 µM
TGI (SW-620 colon): > 100 µM
TGI (BT-549 breast): > 100 µM
TGI (KM12 colon): > 51.3 µM
TGI (MOLT-4 leukemia): > 24.4 µM
TGI (IGROV1 ovarian): > 100 µM
TGI (UACC-62 melanoma): > 100 µM
TGI (NCI-H522 lung): > 59.2 µM

CCOC(=O)CCC(NC(=O)c1ccc(NCc2ccc3nc(OC)c(OC)nc3c2)c2ccccc12)C(=O)OCC (stereo not given)
TGI (PC-3 prostate): > 100 µM
TGI (UO-31 renal): > 100 µM
TGI (TK-10 renal): > 100 µM
TGI (SW-620 colon): > 100 µM
TGI (BT-549 breast): > 100 µM
TGI (KM12 colon): > 100 µM
TGI (MOLT-4 leukemia): > 100 µM
TGI (IGROV1 ovarian): > 100 µM
TGI (UACC-62 melanoma): > 100 µM
TGI (NCI-H522 lung): > 100 µM

CC[P+](c1ccccc1)(N(C)C)N(C)C
TGI (PC-3 prostate): > 100 µM
TGI (UO-31 renal): > 100 µM
TGI (TK-10 renal): > 100 µM
TGI (SW-620 colon): > 100 µM
TGI (BT-549 breast): > 100 µM
TGI (KM12 colon): > 100 µM
TGI (MOLT-4 leukemia): > 100 µM
TGI (IGROV1 ovarian): > 100 µM
TGI (UACC-62 melanoma): > 100 µM
TGI (NCI-H522 lung): > 100 µM

NCC1OC(OC2C(N)CC(N)C(O)C2OC2OC(CO)C(O)C2O)C(N)C(O)C1O (stereo not given)
TGI (PC-3 prostate): > 100 µM
TGI (UO-31 renal): > 100 µM
TGI (TK-10 renal): > 100 µM
TGI (SW-620 colon): > 100 µM
TGI (BT-549 breast): > 100 µM
TGI (KM12 colon): > 100 µM
TGI (MOLT-4 leukemia): > 100 µM
TGI (IGROV1 ovarian): > 100 µM
TGI (UACC-62 melanoma): > 100 µM
TGI (NCI-H522 lung): > 100 µM

C=C(CCC(=O)N(CCc1c[nH]c2ccccc12)C(=O)c1ccccc1CSCC)C(=O)OC
TGI (PC-3 prostate): > 100 µM
TGI (UO-31 renal): > 100 µM
TGI (TK-10 renal): > 100 µM
TGI (SW-620 colon): > 100 µM
TGI (BT-549 breast): > 100 µM
TGI (KM12 colon): > 100 µM
TGI (MOLT-4 leukemia): > 100 µM
TGI (IGROV1 ovarian): > 100 µM
TGI (UACC-62 melanoma): > 100 µM
TGI (NCI-H522 lung): > 100 µM

Clc1ccc(-c2nn3c(COc4ccc(OCc5nnc6sc(-c7ccc(Cl)cc7)nn56)c(Cl)c4)nnc3s2)cc1
TGI (PC-3 prostate): > 100 µM
TGI (UO-31 renal): 42.1 µM
TGI (TK-10 renal): 45.7 µM
TGI (SW-620 colon): 74.1 µM
TGI (BT-549 breast): 52.7 µM
TGI (KM12 colon): > 100 µM
TGI (MOLT-4 leukemia): > 100 µM
TGI (IGROV1 ovarian): 43.9 µM
TGI (UACC-62 melanoma): > 100 µM
TGI (NCI-H522 lung): 37.4 µM

CC(C)(C)OC(=O)N1CCC2(CC1)C(=O)NCN2c1ccccc1
TGI (PC-3 prostate): > 100 µM
TGI (UO-31 renal): > 100 µM
TGI (TK-10 renal): > 100 µM
TGI (SW-620 colon): > 100 µM
TGI (BT-549 breast): > 100 µM
TGI (KM12 colon): > 100 µM
TGI (MOLT-4 leukemia): > 100 µM
TGI (IGROV1 ovarian): > 100 µM
TGI (UACC-62 melanoma): > 100 µM
TGI (NCI-H522 lung): > 100 µM

CCOC1OC(C)(C=C(C#N)C#N)CCC1C (stereo not given)
TGI (PC-3 prostate): > 100 µM
TGI (UO-31 renal): 97.7 µM
TGI (TK-10 renal): > 100 µM
TGI (SW-620 colon): > 100 µM
TGI (BT-549 breast): > 70.3 µM
TGI (KM12 colon): > 100 µM
TGI (MOLT-4 leukemia): > 100 µM
TGI (IGROV1 ovarian): 36.8 µM
TGI (UACC-62 melanoma): > 100 µM
TGI (NCI-H522 lung): 39.5 µM

Nc1c(-c2ccccc2)c2ccc([N+](=O)[O-])cc2c(=O)n1-c1cccc(C(=O)O)c1
TGI (PC-3 prostate): > 100 µM
TGI (UO-31 renal): > 100 µM
TGI (TK-10 renal): > 100 µM
TGI (SW-620 colon): > 100 µM
TGI (BT-549 breast): > 100 µM
TGI (KM12 colon): > 100 µM
TGI (MOLT-4 leukemia): > 100 µM
TGI (IGROV1 ovarian): > 100 µM
TGI (UACC-62 melanoma): > 100 µM
TGI (NCI-H522 lung): > 100 µM

CCCCCCCCCCCCCCCCOC[C@H](COC(c1ccccc1)(c1ccccc1)c1ccccc1)O[P+](=S)OC (stereo not given in full)
TGI (PC-3 prostate): > 100 µM
TGI (UO-31 renal): > 100 µM
TGI (TK-10 renal): > 100 µM
TGI (SW-620 colon): > 100 µM
TGI (BT-549 breast): > 100 µM
TGI (KM12 colon): > 100 µM
TGI (MOLT-4 leukemia): > 100 µM
TGI (IGROV1 ovarian): > 100 µM
TGI (UACC-62 melanoma): > 100 µM
TGI (NCI-H522 lung): > 100 µM

C[N+](C)([O-])C12CC3CC(CC(C3)C1)C2
TGI (PC-3 prostate): > 100 µM
TGI (UO-31 renal): 80.6 µM
TGI (TK-10 renal): 88 µM
TGI (SW-620 colon): > 100 µM
TGI (BT-549 breast): > 100 µM
TGI (KM12 colon): > 100 µM
TGI (MOLT-4 leukemia): > 100 µM
TGI (IGROV1 ovarian): > 100 µM
TGI (UACC-62 melanoma): 47.4 µM
TGI (NCI-H522 lung): 65.7 µM

CSC1=C(C)C(/C=N/Nc2ccc([N+](=O)[O-])cc2)=C(C)N(c2ccccc2)S1(=O)=O
TGI (PC-3 prostate): > 100 µM
TGI (UO-31 renal): > 100 µM
TGI (TK-10 renal): > 100 µM
TGI (SW-620 colon): > 100 µM
TGI (BT-549 breast): > 100 µM
TGI (KM12 colon): > 100 µM
TGI (MOLT-4 leukemia): > 100 µM
TGI (IGROV1 ovarian): > 100 µM
TGI (UACC-62 melanoma): > 100 µM
TGI (NCI-H522 lung): > 100 µM

Cc1c(C)c2c(c(N)c1C#N)C(=O)N(NC(=S)Nc1ccccc1)C2=O
TGI (PC-3 prostate): > 100 µM
TGI (UO-31 renal): > 100 µM
TGI (TK-10 renal): > 100 µM
TGI (SW-620 colon): > 100 µM
TGI (BT-549 breast): > 100 µM
TGI (KM12 colon): > 100 µM
TGI (MOLT-4 leukemia): > 100 µM
TGI (IGROV1 ovarian): > 100 µM
TGI (UACC-62 melanoma): > 100 µM
TGI (NCI-H522 lung): > 100 µM

Cc1cc(C)nc(NS(=O)(=O)c2ccc(NC(=O)c3ccc4nc5ccccc5c(Nc5ccc(S(=O)(=O)N=C(N)N)cc5)c4c3)cc2)n1
TGI (PC-3 prostate): > 100 µM
TGI (UO-31 renal): > 100 µM
TGI (TK-10 renal): > 100 µM
TGI (SW-620 colon): > 100 µM
TGI (BT-549 breast): > 100 µM
TGI (KM12 colon): > 100 µM
TGI (MOLT-4 leukemia): > 100 µM
TGI (IGROV1 ovarian): > 100 µM
TGI (UACC-62 melanoma): > 100 µM
TGI (NCI-H522 lung): > 100 µM

COc1cc2ccc(C(C)NCC#N)cc2cc1OC (stereo not given)
TGI (PC-3 prostate): > 100 µM
TGI (UO-31 renal): > 100 µM
TGI (TK-10 renal): > 100 µM
TGI (SW-620 colon): > 100 µM
TGI (BT-549 breast): > 100 µM
TGI (KM12 colon): > 100 µM
TGI (MOLT-4 leukemia): > 100 µM
TGI (IGROV1 ovarian): > 100 µM
TGI (UACC-62 melanoma): > 100 µM
TGI (NCI-H522 lung): > 100 µM

— PubChem BioAssay (NCI)
